In patent publication US20140051762A1, “POLYCATIONIC COMPOUNDS AND USES THEREOF” (priority 2004, published 2014):
Several values for one entry are separate records, joined by “and”; a condition that tells them apart may be missing. Equal entries are not always repeated.

Key:
Factor Xa = test: anti-heparin assay, % Factor Xa inhibition at single concentration (chromogenic substrate S-2765); type: biochemical; conditions: Single concentration (10 ug/ml)
Experimental: (§1) The following example illustrates the heparin antagonistic effects of polycationic compounds of the present invention. To determine the anti-heparin activity of the polycationic compounds an assay measuring the percent inhibition using a fixed concentration of polycationic compound or concentrations of polycationic compounds causing lysis of 50% of human red blood cells were conducted.
10 IU of anti-thrombin was dissolved in 10 ml of buffer, resulting in a 1 IU/ml stock solution (250×) of the anti-thrombin. The 1 IU/ml (250×) stock solution of anti-thrombin and a 336 mM stock solution of NaCl were diluted into a total volume of 50 μl buffer so that the final anti-thrombin concentration was 0.004 IU/sample well and the NaCl was 150 mM/sample well. 1 μl of the compound to be tested, final concentration 10 μg/ml (corresponding to 0.5 logarithmic antagonist dilution) is added to the sample well. The samples are mixed and allowed to incubate at room temperature for 20 minutes. 50 μl of factor Xa dissolved in buffer is added to the sample well to a final concentration of 0.14 knat/well (2 μl of the 7.1 kna/1 ml stock solution to a final sample well buffer volume of 100 μl). The samples were mixed and further incubated at room temperature for 10 minutes. 10 μl of a 4 mM stock solution of the substrate S-2765 was added to each sample well for a final concentration of 0.4 mM in each sample well. The samples were mixed and hydrolyses of the chromogenic substrate Z-D-Arg-Gly-Arg-pNA (S-2765), thus liberating the chromophoric group pNA (p-nitroaniline), was monitored at 405 nm. The samples were mixed every 30 seconds to maintain a uniform mixture. ThermoLabsystems Multiskan Spectrum spectrophotometer was used to measure the absorbance spectrums. The increase in absorbance was proportional to the enzyme (factor Xa) activity. The % inhibition of factor Xa was determined using a standard curve.

[1] = tested on: FGF2-induced angiogenesis in the CAM model; test: FGF2-induced angiogenesis in the chick chorioallantoic membrane (CAM) model; type: in vivo, chick embryo; conditions: for Mean % inhibition ± SEM: Table 4
Experimental: The following example illustrates the anti-angiogenic effect of exemplary polycationic compounds of the present invention. Ten-day old embryos were purchased from Spafas, Inc. (Preston, Conn.) and were incubated at 37° C. with 55% relative humidity. In the dark with the help of a candling lamp, a small hole was punctured in the shell concealing the air sac with a hypodermic needle. A second hole was punctured in the shell on the broadside of the egg directly over an avascular portion of the embryonic membrane, as observed during candling. A false air sac was created beneath the second hole by the application of negative pressure to the first hole, which caused the chorioallantoic membrane (CAM) to separate from the shell. A window, approximately 1.0 cm^2, was cut in the shell over the dropped CAM with the use of a small crafts grinding wheel (Dremel, Division of Emerson Electric Company Racine, Wis.) which allowed direct access to the underlying CAM. Filter disks of #1 filter paper (Whatman International, United Kingdom) were soaked in 3 mg/mL cortisone acetate (Sigma, St. Louis, Mo.) in a solution of 95% ethanol and water and subsequently air dried under sterile conditions. FGF2 (Life Technologies, Gaithersburg, Md.) was used to grow vessels on the CAMs of 10 day old chick embryos. Sterile filter disks adsorbed with FGF2 dissolved in PBS at 1μg/mL were placed on growing CAMs. […] At 24 h, test compounds or control vehicle was added directly to CAM topically.
(§2) CAM tissue directly beneath FGF2-saturated filter disk was resected from embryos treated 48 hours prior with test compound or control. Tissues were washed three times with PBS. Sections were placed in a 35-mm petri dish (Nalgen Nunc, Rochester, N.Y.) and examined under a SV6 stereomicroscope (Karl Zeiss, Thornwood, N.Y.) at 50× magnification. Digital images of CAM sections adjacent to filters were collected using a 3-CCD color video camera system (Toshiba America, New York, N.Y.) and analyzed using Image-Pro Plus software (Media Cybernetics, Silver Spring, Md.). Table 4 contains the number of vessel branch points contained in a circular region equal to the area of a filter disk counted for each section.
as §2, with “48 h” for “48 hours”, “with” for “with test”, “dish (Nalge” for “dish (Nalgen”, “analyzed with the” for “analyzed using”, “Md.).” for “Md.). Table 4 contains the number of vessel branch points contained in a circular region equal to the area of a filter disk counted for each section.”

human red blood cells = test: lysis of 50% of human red blood cells (HC50); type: cell-based
Experimental: as §1
Factor Xa Inhibition: EC50. To determine the concentration of polycationic compound that causes about 50% […], fixed heparin concentrations were used and different amounts of heparin antagonists were added.

heparin = test: effect on coagulation time and heparin efficacy; conditions: Compound 26 0 mg/L
Experimental: The following example illustrates the effect of a polycationic compound of the present invention on coagulation time. The anti-heparin assay as described herein was used. The assay contained either 1 mg/L, 2 mg/L or 4 mg/I of heparin and increasing amounts of Compound 26 was added.

| Compound | % FactorXa Inhibition (Factor Xa) | also measured |
| --- | --- | --- |
| CC(C)(C)c1cc(N)c(SCCNC(=N)N)c(NC(=O)c2cc(OCCNC(=N)N)cc(C(=O)Nc3cc(C(C)(C)C)cc(N)c3SCCNC(=N)N)c2)c1 [Compound 14] | 40.99% | – |
| CC(C)(C)c1cc(NC(=O)c2cccc(C(=O)Nc3cc(C(C)(C)C)cc(NC(=O)[C@H](N)CCCCN)c3SCCN)c2)c(SCCN)c(NC(=O)[C@H](N)CCCCN)c1 [Compound 4] | 0.9517% | – |
| Magainin [reference compound] | 4.419% | – |
| CC(C)(C)c1cc(NC(=O)CCCCN)c(SCCN)c(NC(=O)c2cccc(C(=O)Nc3cc(C(C)(C)C)cc(NC(=O)CCCCN)c3SCCN)c2)c1 [Compound 11] | 1.903% | – |
| CC(C)(C)c1cc(N)c(SCCNC2=NCCN2)c(NC(=O)c2cccc(C(=O)Nc3cc(C(C)(C)C)cc(N)c3SCCNC3=NCCN3)c2)c1 [Compound 21] | 1.496% | – |
| CC(C)(C)c1cc(N)c(SCCNC(=N)N)c(NC(=O)c2cc(C(=O)Nc3cc(C(C)(C)C)cc(N)c3SCCNC(=N)N)c(OCCNC(=N)N)cc2OCCNC(=N)N)c1 [Compound 16] | 30.39% | – |
| CC(C)(C)c1cc(NC(=O)CCCCNC(=N)N)c(SCCNC(=N)N)c(NC(=O)c2cccc(C(=O)Nc3cc(C(C)(C)C)cc(NC(=O)CCCCNC(=N)N)c3SCCNC(=N)N)c2)c1 [Compound 10] | 20.8% | – |
| CC(C)(C)c1cc(NC(=O)c2cc(OCCN)cc(C(=O)Nc3cc(C(C)(C)C)cc(NC(=O)[C@H](N)Cc4ccccc4)c3SCCN)c2)c(SCCN)c(NC(=O)[C@H](N)Cc2ccccc2)c1 [Compound 5] | 39.77% | – |
| CC(C)(C)c1cc(N)c(SCCN)c(NC(=O)c2cc(C(=O)Nc3cc(C(C)(C)C)cc(N)c3SCCN)ncn2)c1 [Compound 33] | 32.02% | % inhibition ± SEM ([1]; Table 3, 1.0 ug + FGF2 (1 ug)): 17 ± 18%; Branch pts ± SEM ([1]; Table 3, 1.0 ug + FGF2 (1 ug)): 160 ± 18 |
| COc1ccc(NC(=O)C(CCCNC(=N)N)NC(=O)c2cc(NC(=O)C(CCCNC(=N)N)NC(=O)c3cc(NC(=O)C(CCCNC(=N)N)NC(=O)c4cc(NC(=O)C(N)CCCNC(=N)N)ccc4OC)ccc3OC)ccc2OC)cc1C(N)=O (stereo not drawn) [Compound 48] | – | HC50 (human red blood cells): 261 μg/ml and 144 μM; Mean % inhibition ± SEM ([1]; 1.0 ug + FGF2 (1 ug), n = 8): 16 ± 6%; Mean % inhibition ± SEM ([1]; 3.0 ug + FGF2 (1 ug), n = 8): 38 ± 8%; Mean % inhibition ± SEM ([1]; 10 ug + FGF2 (1 ug), n = 8): 55 ± 7% |
| CC(C)(C)c1cc(N)c(SCCN)c(NC(=O)c2cccc(C(=O)Nc3cc(C(C)(C)C)cc(N)c3SCCN)c2)c1 [Compound 3] | 2.855% | – |
| CC(=O)Nc1cc(C(C)(C)C)cc(NC(=O)c2cccc(C(=O)Nc3cc(C(C)(C)C)cc(NC(C)=O)c3SCCN)c2)c1SCCN [Compound 23] | 1.224% | – |
| CC(C)(C)c1cc(N)c(SCCNC(=N)N)c(NC(=O)c2cccc(C(=O)Nc3cc(C(C)(C)C)cc(N)c3SCCNC(=N)N)c2)c1 [Compound 9] | 10.88% and 16.25% | – |
| NCCc1cc(Br)cc(C#Cc2cccc(C#Cc3cc(Br)cc(CCN)c3)c2)c1 [Compound 55] | 46.5% | – |
| heparin [reference compound] | – | Coagulation Time (heparin; Heparin 1 mg/L): 50.8 s; Heparin Efficacy (heparin; Heparin 1 mg/L): 1; Coagulation Time (heparin; Heparin 2 mg/L): 110.8 s; Heparin Efficacy (heparin; Heparin 2 mg/L): 1; Coagulation Time (heparin; Heparin 4 mg/L): 214.9 s; Heparin Efficacy (heparin; Heparin 4 mg/L): 1 |
| CC(=O)Nc1cc(C(C)(C)C)cc(NC(=O)c2cc(OCCN)cc(C(=O)Nc3cc(C(C)(C)C)cc(NC(C)=O)c3SCCN)c2)c1SCCN [Compound 24] | 1.835% | – |

| Compound | % FactorXa Inhibition (Factor Xa) | also measured |
| --- | --- | --- |
| N=C(N)NCCCCC(=O)Nc1cccc(NC(=O)c2cc(C(=O)Nc3cccc(NC(=O)NCCCNC(=N)N)c3SCCN)c(OCCN)cc2OCCN)c1SCCN [Compound 28] | 44.3% | – |
| CC(C)(C)c1cc(NC(=O)c2cccc(C(=O)Nc3cc(C(C)(C)C)cc(NC(=O)[C@H](N)Cc4ccccc4)c3SCCN)c2)c(SCCN)c(NC(=O)[C@H](N)Cc2ccccc2)c1 [Compound 8] | 7.41% | – |
| COC(=O)c1cc(OCCN)ccc1NC(=O)c1cc(OCCC(C)C)ccc1NC(=O)c1cc(OCCN)ccc1C(O)O [Compound 54] | 19.99% | – |
| CC(C)(C)c1cc(N)c(SCCN)c(NC(=O)c2cc(C(=O)Nc3cc(C(C)(C)C)cc(N)c3SCCN)c(OCCN)cc2OCCN)c1 [Compound 15] | 5.71% | – |
| CC(C)(C)c1cc(NC(=O)CCCN)c(SCCN)c(NC(=O)c2cccc(C(=O)Nc3cc(C(C)(C)C)cc(NC(=O)CCCN)c3SCCN)c2)c1 [Compound 6] | 2.583% | – |
| fibroblast growth factor 2 [FgF2, reference compound] | – | Branch pts ± SEM ([1]; Table 2, FgF alone 1.0 ug/ml, n = 8): 155 ± 10; Branch pts ± SEM ([1]; Table 3, FgF2 alone 1.0 ug/ml): 177 ± 10 |
| CN(C)C(NCCSc1c(N)cc(C(C)(C)C)cc1NC(=O)c1cccc(C(=O)Nc2cc(C(C)(C)C)cc(N)c2SCCNC(N(C)C)=[N+](C)C)c1)=[N+](C)C [Compound 22] | 1.292% | – |
| CC(=O)Nc1cc(C(C)(C)C)cc(NC(=O)c2cccc(C(=O)Nc3cc(C(C)(C)C)cc(NC(C)=O)c3SCCNC(=N)N)c2)c1SCCNC(=N)N [Compound 20] | 7.852% | – |
| CC(C)OC(=O)c1cc(NC(=O)c2cc(OCCN)cc(C(=O)Nc3cc(C(=O)OC(C)C)cc(NC(=O)[C@H](N)CCCNC(=N)N)c3SCCN)c2)c(SCCN)c(NC(=O)[C@H](N)CCCNC(=N)N)c1 [Compound 19] | 59.82% | – |
| COC(=O)c1cc(NC(=O)c2cc(NC(=O)c3cc(NC(=O)c4cc(NC(=O)c5cc(NC(=O)c6cc(N)ccc6OC)ccc5OCCN)ccc4OC)ccc3OCCN)ccc2OC)ccc1OCCN [Compound 53] | 43.03% | – |
| CC(C)(C)c1cc(NC(=N)N)c(SCCN)c(NC(=O)c2cc(C(=O)Nc3cc(C(C)(C)C)cc(NC(=N)N)c3SCCN)c(OCCN)cc2OCCN)c1 [Compound 18] | 13.26% | – |
| COC(=O)c1cc(NC(=O)c2cc(NC(=O)c3cc(NC(=O)c4cc(N)ccc4OC)ccc3OCCN)ccc2OC)ccc1OCCN [Compound 52] | 45.48% | – |
| CC(C)(C)c1cc(NC(=O)CCCCNC(=N)N)c(SCCN)c(NC(=O)c2cccc(C(=O)Nc3cc(C(C)(C)C)cc(NC(=O)CCCCNC(=N)N)c3SCCN)c2)c1 [Compound 12] | 9.381% | – |
| CC(C)(C)c1cc(NC(=O)c2cccc(C(=O)Nc3cc(C(C)(C)C)cc(NC(=O)c4cc(N)ccc4OCCCCCN)c3SCCN)c2)c(SCCN)c(NC(=O)c2cc(N)ccc2OCCCCCN)c1 [Compound 13] | 36.84% | – |
| CC(C)(C)c1cc(N)c(SCCNC(=N)N)c(NC(=O)c2cc(C(=O)Nc3cc(C(C)(C)C)cc(N)c3SCCNC(=N)N)c(OCCN)cc2OCCN)c1 [Compound 17] | 15.02% | – |
